Patent US20030176442A1, “Treatment of diabetic ulcers” (priority 2000, published 2003)

Test system: diabetic foot ulcer
Assay: anecdotal report: insulin-dependent diabetic patient with diabetic foot ulcer treated with sildenafil
Type: in vivo, human
Conditions: one patient
From the text: The efficacy of the cGMP PDE5 inhibitors in treating neuropathy in human patients is illustrated by the following anecdotal report. The patient was an insulin-dependent diabetic who had been suffering from erectile dysfunction and who subsequently developed a diabetic foot ulcer. During treatment of their erectile dysfunction with sildenafil it was noted that their foot ulcer, which they had had for approximately two years, was healing. The patient had been through various courses of treatment with minimal results. They had seen vascular surgeons, podiatrists and had visited wound care clinics. Ultimately, they were hopitalised for approximately one month on IV antibiotics etc, and the threat was very real that the patient was going to require a below-the-knee amputation. At times the ulcer would appear to be healing only to re-occur, returning to its pre-treatment size and depth. […] The patient was instructed to continue taking 50 mg of Sildenafil once a day.

Q: Which results are given for `CCCc1nn(C)c2c(=O)[nH]c(-c3cc(S(=O)(=O)N4CCN(C)CC4)ccc3OCC)nc12` [Sildenafil, 5-[2-ethoxy-5-(4-methylpiperazin-1-ylsulphonyl)-phenyl]-1,6-dihydro-1-methyl-3-propylpyrazolo [4,3-d]pyrimidine-7-one]?
A: outcome of the diabetic foot ulcer (ulcer present approximately two years, 50 mg of Sildenafil once a day): complete resolution of the diabetic foot ulcer within one month; ulcer size after start of treatment (Sildenafil treatment begun for erectile dysfunction): decreasing in size; re-occurrence of ulcer on continued treatment (same treatment (50 mg once a day) continued for the past two years): without re-occurrence
